In ChEMBL document CHEMBL3991601, “The target landscape of clinical kinase drugs” (Science, 2017):
Active and inactive are the calls of the source. Rule as the data show it, for most assays here: actives have a measured Kd and inactives only a lower limit.

Tests used:
[1] = molecular target: RAC-alpha serine/threonine-protein kinase (Homo sapiens, UniProt P31749)
[2] = molecular target: S-adenosylmethionine synthase isoform type-2 (Homo sapiens, UniProt P31153)
[3] = molecular target: MAP/microtubule affinity-regulating kinase 3 (Homo sapiens, UniProt P27448)
[4] = molecular target: Serine/threonine-protein kinase pim-1 (Homo sapiens, UniProt P11309)
[5] = molecular target: T1, Membrane-associated tyrosine- and threonine-specific cdc2-inhibitory kinase (Homo sapiens, UniProt Q99640)
T1 sequence (Q99640 whole entry): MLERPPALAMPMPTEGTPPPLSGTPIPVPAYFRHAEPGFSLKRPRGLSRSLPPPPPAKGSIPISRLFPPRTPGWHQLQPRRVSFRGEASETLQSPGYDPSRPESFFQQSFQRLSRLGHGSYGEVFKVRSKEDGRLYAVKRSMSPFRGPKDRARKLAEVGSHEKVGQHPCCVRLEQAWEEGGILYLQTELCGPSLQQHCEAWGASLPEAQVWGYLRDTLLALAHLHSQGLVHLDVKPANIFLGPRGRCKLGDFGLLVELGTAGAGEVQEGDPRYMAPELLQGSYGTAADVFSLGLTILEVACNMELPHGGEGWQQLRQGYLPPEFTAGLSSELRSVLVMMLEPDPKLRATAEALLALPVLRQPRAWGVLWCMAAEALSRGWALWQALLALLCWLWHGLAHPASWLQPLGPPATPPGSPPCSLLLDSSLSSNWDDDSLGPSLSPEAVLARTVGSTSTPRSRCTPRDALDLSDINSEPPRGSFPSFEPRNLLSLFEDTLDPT

[6] = molecular target: Tyrosine-protein kinase CSK (Homo sapiens, UniProt P41240)
[7] = molecular target: T2, Phosphorylase b kinase gamma catalytic chain, liver/testis isoform (Homo sapiens, UniProt P15735)
T2 sequence (P15735 whole entry): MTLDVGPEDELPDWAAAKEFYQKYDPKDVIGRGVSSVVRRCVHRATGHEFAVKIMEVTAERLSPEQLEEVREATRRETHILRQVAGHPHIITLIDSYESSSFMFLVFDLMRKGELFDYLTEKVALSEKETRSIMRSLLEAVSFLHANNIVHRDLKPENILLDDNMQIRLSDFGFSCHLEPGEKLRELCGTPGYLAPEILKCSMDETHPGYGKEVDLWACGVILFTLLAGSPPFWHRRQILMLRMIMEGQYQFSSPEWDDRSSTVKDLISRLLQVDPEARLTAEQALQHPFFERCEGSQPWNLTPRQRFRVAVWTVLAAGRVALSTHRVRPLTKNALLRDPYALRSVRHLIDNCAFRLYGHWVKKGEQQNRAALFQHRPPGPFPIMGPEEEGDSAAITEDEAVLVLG

Ephrin type-A receptor 7 = Ephrin type-A receptor 7 (Homo sapiens, UniProt Q15375)
Chain of Ephrin type-A receptor 7 (Q15375 whole entry): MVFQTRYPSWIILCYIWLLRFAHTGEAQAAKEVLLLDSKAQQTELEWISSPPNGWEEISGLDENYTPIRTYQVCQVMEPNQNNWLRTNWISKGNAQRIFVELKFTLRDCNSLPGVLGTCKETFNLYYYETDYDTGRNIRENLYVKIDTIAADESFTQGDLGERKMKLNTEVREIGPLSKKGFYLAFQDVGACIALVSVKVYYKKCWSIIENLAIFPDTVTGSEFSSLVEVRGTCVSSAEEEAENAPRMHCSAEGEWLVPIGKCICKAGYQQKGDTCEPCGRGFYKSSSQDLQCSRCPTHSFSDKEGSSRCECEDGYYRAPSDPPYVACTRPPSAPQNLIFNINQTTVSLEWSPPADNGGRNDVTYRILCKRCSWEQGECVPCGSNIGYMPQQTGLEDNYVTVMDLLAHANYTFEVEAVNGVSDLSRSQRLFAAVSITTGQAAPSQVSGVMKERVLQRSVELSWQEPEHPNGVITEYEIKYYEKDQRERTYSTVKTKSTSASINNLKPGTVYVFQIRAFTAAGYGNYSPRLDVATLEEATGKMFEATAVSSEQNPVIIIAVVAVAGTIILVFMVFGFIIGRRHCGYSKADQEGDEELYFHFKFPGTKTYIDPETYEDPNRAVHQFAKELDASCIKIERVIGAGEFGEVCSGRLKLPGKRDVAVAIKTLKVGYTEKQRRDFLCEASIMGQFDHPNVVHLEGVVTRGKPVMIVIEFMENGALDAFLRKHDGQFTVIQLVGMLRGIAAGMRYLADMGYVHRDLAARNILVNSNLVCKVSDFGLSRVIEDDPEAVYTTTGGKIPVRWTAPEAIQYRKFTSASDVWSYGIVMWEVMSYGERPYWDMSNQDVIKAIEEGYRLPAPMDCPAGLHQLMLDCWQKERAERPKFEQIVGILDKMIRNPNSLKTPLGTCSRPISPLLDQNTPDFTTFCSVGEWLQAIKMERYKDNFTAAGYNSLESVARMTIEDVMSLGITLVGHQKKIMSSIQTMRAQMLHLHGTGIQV

[8] = molecular target: Proto-oncogene tyrosine-protein kinase Src (Homo sapiens, UniProt P12931)
Chain of Proto-oncogene tyrosine-protein kinase Src (P12931 2-536 limits assumed): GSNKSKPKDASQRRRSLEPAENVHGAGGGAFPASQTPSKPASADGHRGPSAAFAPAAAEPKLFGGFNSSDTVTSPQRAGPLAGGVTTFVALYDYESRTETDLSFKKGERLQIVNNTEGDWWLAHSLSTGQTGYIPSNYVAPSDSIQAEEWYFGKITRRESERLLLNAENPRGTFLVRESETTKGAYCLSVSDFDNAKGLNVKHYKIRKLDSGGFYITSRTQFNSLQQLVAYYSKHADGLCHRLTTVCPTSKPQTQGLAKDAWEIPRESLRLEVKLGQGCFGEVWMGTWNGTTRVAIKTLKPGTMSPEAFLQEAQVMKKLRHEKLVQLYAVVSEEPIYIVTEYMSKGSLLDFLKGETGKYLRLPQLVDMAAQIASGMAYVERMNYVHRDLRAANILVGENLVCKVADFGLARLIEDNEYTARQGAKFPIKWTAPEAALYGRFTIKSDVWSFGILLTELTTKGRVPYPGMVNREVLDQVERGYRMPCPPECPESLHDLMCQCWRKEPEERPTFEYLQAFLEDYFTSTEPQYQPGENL

[9] = molecular target: BMP-2-inducible protein kinase (Homo sapiens, UniProt Q9NSY1)
Chain of BMP-2-inducible protein kinase (Q9NSY1 whole entry): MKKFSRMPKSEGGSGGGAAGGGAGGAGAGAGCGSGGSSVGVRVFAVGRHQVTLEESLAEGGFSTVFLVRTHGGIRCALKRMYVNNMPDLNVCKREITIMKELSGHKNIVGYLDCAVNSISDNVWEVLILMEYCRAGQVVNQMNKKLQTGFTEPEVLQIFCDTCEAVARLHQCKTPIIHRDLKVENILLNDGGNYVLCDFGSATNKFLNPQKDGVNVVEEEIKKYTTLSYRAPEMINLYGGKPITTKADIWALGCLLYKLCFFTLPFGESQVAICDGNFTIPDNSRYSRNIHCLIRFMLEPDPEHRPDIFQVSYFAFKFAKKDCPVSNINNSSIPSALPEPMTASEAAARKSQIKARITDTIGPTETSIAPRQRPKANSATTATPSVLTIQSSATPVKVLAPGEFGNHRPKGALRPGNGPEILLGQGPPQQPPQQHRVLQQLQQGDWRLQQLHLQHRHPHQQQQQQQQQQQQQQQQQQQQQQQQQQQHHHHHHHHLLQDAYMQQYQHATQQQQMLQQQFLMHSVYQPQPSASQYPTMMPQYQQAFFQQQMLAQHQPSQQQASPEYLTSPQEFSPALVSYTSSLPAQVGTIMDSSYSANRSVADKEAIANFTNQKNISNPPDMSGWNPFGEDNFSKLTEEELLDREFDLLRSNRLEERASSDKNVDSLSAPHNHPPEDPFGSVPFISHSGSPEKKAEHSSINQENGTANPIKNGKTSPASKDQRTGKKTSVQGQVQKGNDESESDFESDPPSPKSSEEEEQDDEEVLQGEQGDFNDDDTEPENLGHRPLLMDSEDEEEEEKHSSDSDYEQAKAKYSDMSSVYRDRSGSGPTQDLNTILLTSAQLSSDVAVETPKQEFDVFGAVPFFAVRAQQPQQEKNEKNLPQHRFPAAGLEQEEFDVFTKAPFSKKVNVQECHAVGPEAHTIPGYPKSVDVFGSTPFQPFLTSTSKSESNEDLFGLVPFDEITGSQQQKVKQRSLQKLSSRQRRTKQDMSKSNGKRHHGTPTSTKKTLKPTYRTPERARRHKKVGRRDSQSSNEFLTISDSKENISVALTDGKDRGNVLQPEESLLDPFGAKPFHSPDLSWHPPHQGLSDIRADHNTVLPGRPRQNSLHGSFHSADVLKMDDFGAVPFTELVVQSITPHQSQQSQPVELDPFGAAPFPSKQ

[10] = molecular target: T3, Inhibitor of nuclear factor kappa-B kinase subunit epsilon (Homo sapiens, UniProt Q14164)
T3 sequence (Q14164 whole entry): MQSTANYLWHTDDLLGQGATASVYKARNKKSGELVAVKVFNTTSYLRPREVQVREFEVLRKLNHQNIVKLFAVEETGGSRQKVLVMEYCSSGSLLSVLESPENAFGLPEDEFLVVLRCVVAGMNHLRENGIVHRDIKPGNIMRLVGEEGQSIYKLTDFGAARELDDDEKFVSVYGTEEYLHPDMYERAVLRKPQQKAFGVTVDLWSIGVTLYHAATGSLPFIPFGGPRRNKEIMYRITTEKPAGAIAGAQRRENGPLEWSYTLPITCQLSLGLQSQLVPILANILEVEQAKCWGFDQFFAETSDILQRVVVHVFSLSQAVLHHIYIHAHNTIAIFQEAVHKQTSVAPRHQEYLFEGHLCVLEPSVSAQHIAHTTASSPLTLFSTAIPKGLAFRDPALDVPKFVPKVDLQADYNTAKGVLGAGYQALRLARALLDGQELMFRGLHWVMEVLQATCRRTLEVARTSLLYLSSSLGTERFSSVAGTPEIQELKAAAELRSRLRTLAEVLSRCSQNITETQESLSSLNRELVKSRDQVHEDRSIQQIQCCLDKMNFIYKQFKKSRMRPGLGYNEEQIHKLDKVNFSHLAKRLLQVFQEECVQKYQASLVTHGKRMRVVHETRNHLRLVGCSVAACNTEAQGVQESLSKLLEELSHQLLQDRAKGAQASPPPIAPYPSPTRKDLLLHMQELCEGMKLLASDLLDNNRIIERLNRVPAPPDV

[11] = molecular target: Rho-associated protein kinase 2 (Homo sapiens, UniProt O75116)
Ephrin type-A receptor 5 = Ephrin type-A receptor 5 (Homo sapiens, UniProt P54756)
Chain of Ephrin type-A receptor 5 (P54756 whole entry): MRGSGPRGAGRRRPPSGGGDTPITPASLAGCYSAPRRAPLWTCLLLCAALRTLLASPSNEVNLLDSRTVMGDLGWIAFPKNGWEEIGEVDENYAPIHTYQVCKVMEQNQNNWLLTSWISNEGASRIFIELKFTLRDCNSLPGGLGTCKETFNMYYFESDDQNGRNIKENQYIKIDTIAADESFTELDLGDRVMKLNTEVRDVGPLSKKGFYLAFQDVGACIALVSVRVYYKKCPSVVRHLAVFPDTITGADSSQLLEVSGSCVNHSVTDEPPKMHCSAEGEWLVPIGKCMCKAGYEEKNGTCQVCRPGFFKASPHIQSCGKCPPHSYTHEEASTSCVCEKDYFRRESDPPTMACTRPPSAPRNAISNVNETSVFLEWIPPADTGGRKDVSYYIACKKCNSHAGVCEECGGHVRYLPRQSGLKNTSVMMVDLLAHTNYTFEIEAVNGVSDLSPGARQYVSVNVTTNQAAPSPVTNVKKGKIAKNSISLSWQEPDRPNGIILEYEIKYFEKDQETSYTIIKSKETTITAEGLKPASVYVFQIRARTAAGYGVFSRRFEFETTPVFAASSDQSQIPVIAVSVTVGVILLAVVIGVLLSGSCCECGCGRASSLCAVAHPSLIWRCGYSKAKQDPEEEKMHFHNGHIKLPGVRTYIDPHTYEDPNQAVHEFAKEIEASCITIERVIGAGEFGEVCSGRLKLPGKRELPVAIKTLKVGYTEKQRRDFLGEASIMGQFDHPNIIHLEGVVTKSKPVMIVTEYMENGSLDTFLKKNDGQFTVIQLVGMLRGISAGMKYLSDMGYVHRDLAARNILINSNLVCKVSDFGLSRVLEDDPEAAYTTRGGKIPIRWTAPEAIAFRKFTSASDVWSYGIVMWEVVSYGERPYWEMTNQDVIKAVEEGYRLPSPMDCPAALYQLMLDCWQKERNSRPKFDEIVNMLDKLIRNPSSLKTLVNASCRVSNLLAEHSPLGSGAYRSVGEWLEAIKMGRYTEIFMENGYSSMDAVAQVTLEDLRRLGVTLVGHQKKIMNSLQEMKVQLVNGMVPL

[12] = molecular target: Elongation factor Tu, mitochondrial (Homo sapiens, UniProt P49411)
[13] = molecular target: Casein kinase II subunit alpha' (Homo sapiens, UniProt P19784)
Chain of Casein kinase II subunit alpha' (P19784 whole entry): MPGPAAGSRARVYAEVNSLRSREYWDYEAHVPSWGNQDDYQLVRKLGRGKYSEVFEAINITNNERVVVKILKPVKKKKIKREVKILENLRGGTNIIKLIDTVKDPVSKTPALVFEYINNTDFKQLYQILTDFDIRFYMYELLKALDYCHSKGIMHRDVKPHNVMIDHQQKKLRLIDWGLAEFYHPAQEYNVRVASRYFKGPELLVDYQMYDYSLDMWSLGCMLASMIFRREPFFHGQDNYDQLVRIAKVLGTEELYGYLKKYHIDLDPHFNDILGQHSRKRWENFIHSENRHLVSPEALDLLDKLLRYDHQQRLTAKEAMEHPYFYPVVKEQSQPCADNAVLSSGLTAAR

[14] = molecular target: Tyrosine-protein kinase Fer (Homo sapiens, UniProt P16591)
Also: in the data inactive means no Kd found up to 30 µM.

Chain of RAC-alpha serine/threonine-protein kinase (P31749 whole entry, canonical isoform): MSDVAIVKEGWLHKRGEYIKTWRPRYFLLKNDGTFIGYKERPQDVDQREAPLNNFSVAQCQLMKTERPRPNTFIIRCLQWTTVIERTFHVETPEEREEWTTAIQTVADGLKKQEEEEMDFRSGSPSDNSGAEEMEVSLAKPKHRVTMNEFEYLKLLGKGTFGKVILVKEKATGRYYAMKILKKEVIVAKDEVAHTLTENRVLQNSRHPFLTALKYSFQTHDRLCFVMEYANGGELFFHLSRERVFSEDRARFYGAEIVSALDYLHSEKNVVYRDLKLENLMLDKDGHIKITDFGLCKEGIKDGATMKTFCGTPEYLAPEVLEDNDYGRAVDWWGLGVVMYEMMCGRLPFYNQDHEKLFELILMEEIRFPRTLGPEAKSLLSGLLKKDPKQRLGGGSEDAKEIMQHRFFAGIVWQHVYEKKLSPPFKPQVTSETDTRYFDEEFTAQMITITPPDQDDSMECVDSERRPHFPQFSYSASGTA
Chain of S-adenosylmethionine synthase isoform type-2 (P31153 whole entry, canonical isoform): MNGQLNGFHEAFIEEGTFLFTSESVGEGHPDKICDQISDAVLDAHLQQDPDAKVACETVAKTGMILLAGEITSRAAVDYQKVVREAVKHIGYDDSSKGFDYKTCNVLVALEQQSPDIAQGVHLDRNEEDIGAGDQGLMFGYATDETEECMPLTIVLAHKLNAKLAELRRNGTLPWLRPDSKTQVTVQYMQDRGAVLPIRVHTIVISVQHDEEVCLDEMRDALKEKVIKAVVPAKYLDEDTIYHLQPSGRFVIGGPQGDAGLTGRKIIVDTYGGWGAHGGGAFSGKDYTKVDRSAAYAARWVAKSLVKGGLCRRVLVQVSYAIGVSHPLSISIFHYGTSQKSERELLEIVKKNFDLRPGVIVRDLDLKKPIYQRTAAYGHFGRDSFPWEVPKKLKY

Structure (SMILES)	Kd [1]	Kd [2]	Kd [3]	Kd [4]	Kd [5]	Kd [6]	Kd [7]	Kd (Ephrin type-A receptor 7)	Kd [8]	Kd [9]	Kd [10]	Kd [11]	Kd (Ephrin type-A receptor 5)	Kd [12]	Kd [13]	Kd [14]
CN1CCN(c2nc(C3=C(c4c[nH]c5ccccc45)C(=O)NC3=O)c3ccccc3n2)CC1 [SOTRASTAURIN]	> 30 µM (inactive)	> 30 µM (inactive)	> 30 µM (inactive)	8.84 µM	> 30 µM (inactive)	> 30 µM (inactive)	> 30 µM (inactive)	> 30 µM (inactive)	> 30 µM (inactive)	> 30 µM (inactive)	> 30 µM (inactive)	> 30 µM (inactive)	> 30 µM (inactive)	> 30 µM (inactive)	> 30 µM (inactive)	> 30 µM (inactive)
CC(C)(O)CC(=O)NCCn1ccc2ncnc(Nc3ccc(Oc4cccc(C(F)(F)F)c4)c(Cl)c3)c21 [TAK-285]	> 30 µM (inactive)	> 30 µM (inactive)	> 30 µM (inactive)	> 30 µM (inactive)	> 30 µM (inactive)	> 30 µM (inactive)	> 30 µM (inactive)	> 30 µM (inactive)	> 30 µM (inactive)	> 30 µM (inactive)	> 30 µM (inactive)	> 30 µM (inactive)	> 30 µM (inactive)	> 30 µM (inactive)	> 30 µM (inactive)	> 30 µM (inactive)
Cn1c(=O)c(F)c(Nc2ccc(I)cc2F)c2c(=O)n(C[C@@H](O)CO)cnc21 [TAK-733]	> 30 µM (inactive)	> 30 µM (inactive)	> 30 µM (inactive)	> 30 µM (inactive)	> 30 µM (inactive)	> 30 µM (inactive)	> 30 µM (inactive)	> 30 µM (inactive)	> 30 µM (inactive)	> 30 µM (inactive)	> 30 µM (inactive)	> 30 µM (inactive)	> 30 µM (inactive)	> 30 µM (inactive)	> 30 µM (inactive)	> 30 µM (inactive)
O[C@H]1CC[C@H](Nc2ncc3nc(Nc4c(F)cc(F)cc4F)n([C@H]4CCOC4)c3n2)CC1 [TANZISERTIB]	> 30 µM (inactive)	> 30 µM (inactive)	> 30 µM (inactive)	> 30 µM (inactive)	> 30 µM (inactive)	> 30 µM (inactive)	> 30 µM (inactive)	> 30 µM (inactive)	> 30 µM (inactive)	> 30 µM (inactive)	> 30 µM (inactive)	> 30 µM (inactive)	> 30 µM (inactive)	> 30 µM (inactive)	> 30 µM (inactive)	> 30 µM (inactive)
CNC(=O)c1cc(COc2nnc(Nc3ccc(Cl)cc3)c3ccoc23)ccn1 [TELATINIB]	> 30 µM (inactive)	> 30 µM (inactive)	> 30 µM (inactive)	> 30 µM (inactive)	> 30 µM (inactive)	> 30 µM (inactive)	> 30 µM (inactive)	> 30 µM (inactive)	> 30 µM (inactive)	> 30 µM (inactive)	> 30 µM (inactive)	> 30 µM (inactive)	> 30 µM (inactive)	> 30 µM (inactive)	> 30 µM (inactive)	> 30 µM (inactive)
Cc1cc(-c2cc(OC(=O)c3ccccc3)ccc2Cl)cc2nnc(Nc3ccc(OCCN4CCCC4)cc3)nc12 [TG100-801]	> 30 µM (inactive)	> 30 µM (inactive)	> 30 µM (inactive)	> 30 µM (inactive)	> 30 µM (inactive)	> 30 µM (inactive)	> 30 µM (inactive)	> 30 µM (inactive)	> 30 µM (inactive)	> 30 µM (inactive)	> 30 µM (inactive)	> 30 µM (inactive)	> 30 µM (inactive)	> 30 µM (inactive)	> 30 µM (inactive)	> 30 µM (inactive)
